Test results taken from US20090118261A1, “QUINAZOLINONE DERIVATIVES AND THEIR USE AS B-RAF INHIBITORS” (ASTRAZENECA AB, priority 2004, published 2009).

Molecular target: T1, human recombinant, purified wild type His-B-Raf protein kinase (Homo sapiens, UniProt P15056)
T1 construct: His
Assay: B-Raf In Vitro ELISA Assay
Assay type: biochemical
Conditions: phosphorylation of MEK1; 2.5 nM B-Raf, 0.15 μM MEK1, 10 μM ATP
Method: B-Raf In Vitro ELISA Assay
Activity of human recombinant, purified wild type His-B-Raf protein kinase was determined in vitro using an enzyme-linked immunosorbent assay (ELISA) assay format, which measures phosphorylation of the B-Raf substrate, human recombinant, purified His-derived (detagged) MEK1. The reaction utilized 2.5 nM B-Raf, 0.15 μM MEK1 and 10 μM adenosine triphosphate (ATP) in 40 mM N-(2-hydroxyethyl)piperazine-N′-(2-ethanesulfonic acid hemisodium salt (HEPES), 5 mM 1,4-dithio-DL-threitol (DTT), 10 mM MgCl2, 1 mM ethylenediaminetetraacetic acid (EDTA) and 0.2M NaCl (1×HEPES buffer), with or without compound at various concentrations, in a total reaction volume of 25 μl in 384 well plates. B-Raf and compound were preincubated in 1×HEPES buffer for 1 hour at 25° C. Reactions were initiated with addition of MEK1 and ATP in 1×HEPES buffer and incubated at 25° C. for 50 minutes and reactions stopped by addition of 10 μl 175 mM EDTA (final concentration 50 mM) in 1×HEPES buffer. 5 μl of the assay mix was then diluted 1:20 into 50 mM EDTA in 1×HEPES buffer, transferred to 384 well black high protein binding plates and incubated for 12 h at 4° C. Plates were washed in tris buffered saline containing 0.1% Tween20 (TBST), blocked with 50 μl Superblock (Pierce) for 1 hour at 25° C., washed in TBST, incubated with 50 μl rabbit polyclonal anti-phospho-MEK antibody (Cell Signaling) diluted 1:1000 in TBS for 2 h at 25° C., washed with TBST, incubated with 50 μl goat anti-rabbit horseradish peroxidase-linked antibody (Cell Signaling) diluted 1:2000 in TBS for 1 hour at 25° C. and washed with TBST. 50 μl of fluorogenic peroxidase substrate (Quantablu—Pierce) was added and following incubation for 45-60 mins, 50 μl QuantabluSTOP (Pierce) was added. Blue fluorescent product was detected at excitation 325 nm and emission 420 nm using a TECAN Ultra plate reader. Data was graphed and IC50s calculated using Excel Fit (Microsoft).

T1 sequence (P15056 whole entry): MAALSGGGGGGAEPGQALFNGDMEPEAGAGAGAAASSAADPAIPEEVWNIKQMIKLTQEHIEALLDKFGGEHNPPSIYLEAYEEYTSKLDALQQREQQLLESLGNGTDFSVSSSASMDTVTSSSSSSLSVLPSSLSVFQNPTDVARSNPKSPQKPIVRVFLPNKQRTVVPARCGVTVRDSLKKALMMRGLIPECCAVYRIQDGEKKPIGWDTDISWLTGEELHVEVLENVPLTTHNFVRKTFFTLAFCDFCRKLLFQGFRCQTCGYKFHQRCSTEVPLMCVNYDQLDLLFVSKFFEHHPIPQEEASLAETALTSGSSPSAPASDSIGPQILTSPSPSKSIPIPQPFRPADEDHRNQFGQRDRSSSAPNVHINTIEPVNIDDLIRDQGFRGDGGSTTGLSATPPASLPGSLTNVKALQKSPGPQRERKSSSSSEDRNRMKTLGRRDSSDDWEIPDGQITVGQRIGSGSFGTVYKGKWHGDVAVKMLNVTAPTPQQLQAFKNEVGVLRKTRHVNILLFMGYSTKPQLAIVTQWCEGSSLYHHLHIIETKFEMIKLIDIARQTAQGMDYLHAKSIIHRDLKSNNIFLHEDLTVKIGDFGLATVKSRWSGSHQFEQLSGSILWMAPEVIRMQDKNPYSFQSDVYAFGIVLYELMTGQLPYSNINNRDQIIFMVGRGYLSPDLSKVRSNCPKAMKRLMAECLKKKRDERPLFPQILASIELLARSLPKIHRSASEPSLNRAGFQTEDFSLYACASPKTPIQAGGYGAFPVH

Question: Which IC50 does the source give for `Cc1ccc(NC(=O)c2cccc(C(C)(C)C#N)c2)cc1N(C)c1ccc2ncn(C)c(=O)c2c1` [Example 33, 3-(Cyano-dimethyl-methyl)-N-{4-methyl-3-[methyl-(3-methyl-4-oxo-3,4-dihydro-quinazolin-6-yl)-amino]-phenyl}-beazamide] here?
Answer: 1930 nM

Question: How did the IC50 turn out when `Cc1ccc(NC(=O)c2cccc(C(C)(C)C#N)c2)cc1Nc1ccc2ncn(CCCN3CCOCC3)c(=O)c2c1` [Example 7, 3-(1-Cyano-1-methylethyl)-N-(4-methyl-3-{[3-(3-morpholin-4-ylpropyl)-4-oxo-3,4-dihydroquinazolin-6-yl]amino}phenyl)-benzamide] was run?
Answer: 347 nM

Question: `Cc1nc2ccc(Nc3cc(NC(=O)c4cccc(C(C)(C)C#N)c4)ccc3C)cc2c(=O)[nH]1` [Example 4, 3-(1-Cyano-1-methylethyl)-N-{4-methyl-3-[(2-methyl-4-oxo-3,4-dihydroquinazolin-6-yl)amino]phenyl}-benzamide] was tested. Which IC50 did it give?
Answer: 186 nM
